The values that follow are results of earlier work, collected in patent US6956029B1, “Solid formulation of glucosamine sulphate” (SCA Lohnherstellungs AG, priority 1999, dated 2005).

SMILES strings stand for the structures.

The conditions of series [1]: first acid dissociation constant.
The conditions of series [2]: over 30 days at 75% rH/20° C.

As for `O=C1O[C@H]([C@@H](O)CO)C(O)=C1O` [ascorbic acid], the pKa1 in series [1] is 4.1.

Take `O=C(O)CC(O)(CC(=O)O)C(=O)O` [citric acid]: the pKa1 in series [1] is 3.1.

Turning to `N[C@H]1C(O)O[C@H](CO)[C@@H](O)[C@@H]1O.O=S(=O)([O-])O.[Cl-].[K+].[K+]` (stereo partly drawn) [mixed salt with potassium chloride, D-glucosamine sulphate di-potassium chloride], the stability on storage entry in series [2] is given as “essentially stable”.
